Experimental findings from patent US20230324373A1, “PYRUVIC ACID OPTICAL PROBE, PREPARATION METHOD THEREFOR, AND APPLICATION THEREOF” (East China University of Science and Technology, priority 2020, published 2023) are described below.

Experiment [1] in a line: titration curve of pyruvate optical sensor (concentration gradient pyruvate detection). It counts as binding. Conditions: for change of the ratio of fluorescence intensity at 528 nm after excitation at 420 nm and at 485 nm: pyruvate concentration gradient; for Kd: ratio of fluorescence at 528 nm, excitation 420 nm and 485 nm, read-out: Kd (binding constant). The protocol:
6. Take 100 μl of 1 μM protein solution, incubate at 37° C. for 5 minutes, add pyruvate for titration, and measure the fluorescence intensity of the protein emitted at 528 nm after fluorescence excitation at 485 nm. The fluorescence excitation and emission measurement of the samples were completed by a multifunctional fluorescence microplate reader.

The nature of experiment [2]: specificity of purified pyruvate optical sensors. It counts as biochemical. Conditions: purified sensor.
A short description of experiment [3]: fluorescence spectra of purified sensor treated with 0 mM and 10 mM pyruvate. It counts as biochemical. Conditions: 10 minutes. The protocol: 7. Take 100 μl of 1 μM protein solution, incubate at 37° C. for 5 minutes, add pyruvate, and measure the absorption and fluorescence spectra of the protein. The determination of the absorption spectrum and fluorescence spectrum of the sample is completed by a spectrophotometer and a fluorescence spectrophotometer.
Exemplarily, after the purified pyruvate optical sensor PdhR(96-254)-192/194-M194V-cpYFP was treated with 0 mM and 10 mM pyruvate for 10 minutes, respectively, the fluorescence spectrum was detected using a fluorescence spectrophotometer.
Determination of excitation spectra: Excitation spectra were recorded with an excitation range of 350 nm to 500 nm and an emission wavelength of 530 nm, with readings every 5 nm.
Determination of emission spectra: excitation spectra were recorded with an fixed excitation wavelength of 420 nm and 490 nm and an emission range of 505-600 nm, read every 5 nm.

As usually defined, the Kd is the concentration at which binding is half-saturated. For the substance “141/143-R191S/R192T: cpYFP at 141/143 of PdhR(96-254), mutations R191S/R192T”, in experiment [1], the “change of the ratio of fluorescence intensity at 528 nm after excitation at 420 nm and at 485 nm” value (“change of the ratio … at 485 nm” below) is 3.9 times; the Kd was 164 µM.
In the case of “141/143-S190P/R191H/R192P: cpYFP at 141/143 of PdhR(96-254), mutations S190P/R191H/R192P”, in experiment [1], the “change of the ratio … at 485 nm” value stood at 3.2 times; the Kd came to 84 µM.
For “141/143-S190R/R191S/R192P: cpYFP at 141/143 of PdhR(96-254), mutations S190R/R191S/R192P”, in experiment [1], the “change of the ratio … at 485 nm” value came to 3.1 times; the Kd was 158 µM.
With “141/143-S190T/R191Q/R192E: cpYFP at 141/143 of PdhR(96-254), mutations S190T/R191Q/R192E”, in experiment [1], the “change of the ratio … at 485 nm” value is reported as 2.7 times; the Kd turned out to be 186 µM.
For the substance “141/143-S 190L/R191V: cpYFP at 141/143 of PdhR(96-254), mutations S190L/R191V”, in experiment [1], the “change of the ratio … at 485 nm” value stood at 4.2 times; the dissociation constant Kd turned out to be 185 µM.
As for “141/143: optical sensor with cpYFP inserted at site 141/143 of PdhR(96-254)”, in experiment [1], the “change of the ratio … at 485 nm” value came out at 2.0 times; the Kd was 28 µM. Moreover, the specificity result in experiment [2] is reported as “good specificity”.
“192/194-M194V-S190E/R191N/R192D: cpYFP at 192/194 of PdhR(96-254), mutations M194V/S190E/R191N/R192D”: in experiment [1], the “change of the ratio … at 485 nm” value is listed as 13.1 times; the Kd is 1070 µM. In addition, the specificity entry in experiment [2] was “good specificity”.
As for “192/194-M194V: cpYFP at 192/194 of PdhR(96-254), mutation M194V (family SEQ ID NO: 22; coding sequence SEQ ID NO: 31)”, in experiment [3], the “fluorescence intensity excited at 420 nm relative to 0 mM pyruvate” value was found to be 0.6 times and the “fluorescence intensity excited at 490 nm relative to 0 mM pyruvate” value stood at 5.8 times. In experiment [1], the “change of the ratio … at 485 nm” value was 9.7 times; the Kd amounted to 475 µM. Further, in experiment [2], the specificity result is “good specificity”.
As for “192/195: optical sensor with cpYFP inserted at site 192/195 of PdhR(96-254)”, in experiment [1], the “change of the ratio … at 485 nm” value stood at 8.3 times; the Kd turned out to be 19900 µM.
Turning to “PdhR(96-254)-192/194-M194V/S190D/R191Y/R192T-cpYFP: cpYFP at 192/194 of PdhR(96-254), mutations M194V/S190D/R191Y/R192T”, in experiment [2], the specificity entry is listed as “good specificity”.
